The target of one test is T1, ACE (Rattus norvegicus, UniProt P47820).
T1 construct: membrane fraction prepared from rat lung; from tissue; host or cells: rat lung, membrane fraction (method of Wu-Wong et al.)
T1 sequence (P47820 36-1313): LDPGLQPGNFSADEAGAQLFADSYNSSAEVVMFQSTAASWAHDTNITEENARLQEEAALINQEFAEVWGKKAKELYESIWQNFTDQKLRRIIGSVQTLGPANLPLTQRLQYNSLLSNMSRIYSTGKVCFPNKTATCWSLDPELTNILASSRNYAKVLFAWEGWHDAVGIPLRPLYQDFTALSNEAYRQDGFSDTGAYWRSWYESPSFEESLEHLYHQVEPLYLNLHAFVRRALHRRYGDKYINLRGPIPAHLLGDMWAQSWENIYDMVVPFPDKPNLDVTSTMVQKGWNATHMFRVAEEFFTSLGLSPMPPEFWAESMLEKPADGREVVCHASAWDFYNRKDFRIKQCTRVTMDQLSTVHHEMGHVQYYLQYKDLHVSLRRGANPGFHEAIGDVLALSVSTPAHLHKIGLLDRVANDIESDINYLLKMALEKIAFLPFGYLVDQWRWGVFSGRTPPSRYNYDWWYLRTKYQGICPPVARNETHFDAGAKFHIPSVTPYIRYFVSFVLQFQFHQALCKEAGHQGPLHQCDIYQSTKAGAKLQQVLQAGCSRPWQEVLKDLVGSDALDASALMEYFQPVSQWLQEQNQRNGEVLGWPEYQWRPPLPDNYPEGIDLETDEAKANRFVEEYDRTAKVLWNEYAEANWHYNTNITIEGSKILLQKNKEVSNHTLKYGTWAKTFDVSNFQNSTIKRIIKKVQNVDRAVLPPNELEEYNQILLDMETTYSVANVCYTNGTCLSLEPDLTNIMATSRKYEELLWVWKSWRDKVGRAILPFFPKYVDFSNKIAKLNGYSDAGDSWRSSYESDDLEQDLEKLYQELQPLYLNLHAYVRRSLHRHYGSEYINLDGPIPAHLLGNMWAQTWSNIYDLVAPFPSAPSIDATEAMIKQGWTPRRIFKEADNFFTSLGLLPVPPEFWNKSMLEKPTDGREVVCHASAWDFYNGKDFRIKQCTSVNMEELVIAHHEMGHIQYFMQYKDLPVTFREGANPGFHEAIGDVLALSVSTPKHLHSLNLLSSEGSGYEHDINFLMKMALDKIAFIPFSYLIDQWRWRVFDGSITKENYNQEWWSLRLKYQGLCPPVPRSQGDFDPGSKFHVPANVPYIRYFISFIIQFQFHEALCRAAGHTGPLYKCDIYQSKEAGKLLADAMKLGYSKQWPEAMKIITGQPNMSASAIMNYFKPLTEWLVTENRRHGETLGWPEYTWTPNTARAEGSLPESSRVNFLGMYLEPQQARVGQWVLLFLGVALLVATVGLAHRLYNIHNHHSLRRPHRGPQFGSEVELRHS
In words: ACE inhibition activity using rat lung (Experiment A-2). The class given is biochemical. The following applies: rat lung membrane fraction, borate buffer pH 8.3. How it is done:
The ACE inhibition activity was determined by using a membrane fraction prepared from rat lung in accordance with the method of Wu-Wong et al. (Characterization of Endthelin Converting Enzyme in Rat Lung., Junshyum R. Wu-Wong, Gerald, P. Budzik, Edward M. Devine and Terry J. Opgenorth, Biochem. Biophys. Res. Commun., 1990, 171, 1291-1296.).
The ACE activity was determined with the use of a modification (modified to a borate buffer, pH 8.3) of the method of Cushman and Cheung (Spectrophotometric Assay and Properties of the Angiotensin-Converting Enzyme of Rabbit Lung., Cushman, D. W. and Cheung H. S., 1971, 20, 1637-1648.).
In the presence of ACE, the hippurate liberated from hippuryl-histidyl-leucine (Hippuryl-His-Leu (PeptideInstitute Inc., Japan)) was extracted with ethyl acetate and then the absorbance was measured at a wavelength of 228 nm.
With respect to the ACE inhibition activity, the inhibitor was added to the experimental system as described above in such a manner as to give the final concentrations of 1, 3, 10, 30, 100, 300 and 1000 nM, an inhibition curve was prepared, and then the concentration at which 50% inhibition was achieved was taken as IC50.

The target of test [1] is T2, vasopressin (V1) receptor (Rattus norvegicus, UniProt P30560).
T2 construct: Membrane specimens of rat liver (V1); from tissue; host or cells: rat liver membranes
T2 sequence (P30560 whole entry): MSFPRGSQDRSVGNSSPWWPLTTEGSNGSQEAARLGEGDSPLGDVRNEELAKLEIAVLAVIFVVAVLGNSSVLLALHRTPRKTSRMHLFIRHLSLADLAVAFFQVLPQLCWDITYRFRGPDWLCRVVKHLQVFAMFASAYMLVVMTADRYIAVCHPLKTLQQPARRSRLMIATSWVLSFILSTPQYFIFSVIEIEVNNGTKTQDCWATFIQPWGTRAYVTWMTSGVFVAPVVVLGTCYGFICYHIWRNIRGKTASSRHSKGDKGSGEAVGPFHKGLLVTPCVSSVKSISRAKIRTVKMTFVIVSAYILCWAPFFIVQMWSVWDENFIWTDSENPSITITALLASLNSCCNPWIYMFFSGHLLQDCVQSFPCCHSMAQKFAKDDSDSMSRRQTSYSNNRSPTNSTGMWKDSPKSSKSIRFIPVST
In words: V1 receptor binding assay, rat liver membrane (Experiment E-3). Conditions: [3H]-Arg-vasopressin, pH 7.4. How it is done:
(§1) Membrane specimens of rat liver (V1) and rat kidney (V2) were used. 100,000 counts (3.69 nM) of [^3 H]-Arg-vasopressin, 25 μg (1 mg protein/ml) of each membrane specimen and a test medicament (10^-7 to 10^-5 M) were incubated in a total volume of 250 μl of an assay buffer (pH=7.4) containing 10 mM of MgCl2, 2 mM of EGTA and 20 mM of HEPES at 4° C. over day and night. Then, the incubation was washed with 5-ml portions of the buffer 5 times to thereby separate the membrane specimen binding to vasopressin followed by filtration with the use of a glass filter (GF/F). This glass filter was dried for about 3 hours and mixed with a cocktail for liquid scintillation (10 ml, ACSII). After allowing to stand overnight, the amount of the [^3 H]-Arg-vasopressin binding to the membrane was determined with a liquid scintillation counter and the inhibition ratio was calculated in accordance with the following formula: […]
(§2) B1; the amount of [^3 H]-Arg-vasopressin binding to the membrane in the presence of excessive vasopressin (10 μM)
(§3) C0; the amount of [^3 H]-Arg-vasopressin binding to the membrane in the absence of the test medicament and
(§4) C1; the amount of [^3 H]-Arg-vasopressin binding to the membrane in the presence of both the test medicament in a known amount and [^3 H]-Arg-vasopressin. […]

Test [2] addresses T3, vasopressin (V2) receptor (Rattus norvegicus, UniProt Q00788).
T3 construct: rat kidney (V2); from tissue; host or cells: rat kidney membranes
In words: V2 receptor binding assay, rat kidney membrane (Experiment E-3). Conditions: [3H]-Arg-vasopressin, pH 7.4. How it is done: as §1, §2, §3, §4

Test [3] addresses T3, vasopressin (V2) receptor. In words: V2 receptor binding assay, rat kidney membrane (Experiment F-2). The following applies: [3H]-Arg-vasopressin, pH 7.4. How it is done: as §1, with “in” for “in a total volume of”, “μl in total” for “μl”
as §2, §3, §4

T3 sequence (Q00788 whole entry): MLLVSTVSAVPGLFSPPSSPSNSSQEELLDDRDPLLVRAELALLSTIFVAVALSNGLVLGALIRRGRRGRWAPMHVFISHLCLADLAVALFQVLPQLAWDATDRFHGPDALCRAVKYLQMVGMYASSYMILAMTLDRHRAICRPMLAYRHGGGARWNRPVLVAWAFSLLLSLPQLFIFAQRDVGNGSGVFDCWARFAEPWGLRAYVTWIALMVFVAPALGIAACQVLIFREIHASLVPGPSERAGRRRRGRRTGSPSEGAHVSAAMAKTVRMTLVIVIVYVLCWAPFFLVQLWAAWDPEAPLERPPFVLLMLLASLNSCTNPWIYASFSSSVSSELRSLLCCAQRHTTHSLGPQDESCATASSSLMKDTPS

Take `CC[C@H](C)[C@H](S)C(=O)NC1CCc2ccccc2N(CC(=O)O)C1=O` (stereo partly drawn) [Example A-9, 1-Carboxymethyl-3-[(2S,3S)-2-mercapto-3-methylvarelylamino]-1H-[1]benzazepin-2-one]: at ACE, the IC50 was found to be 13 nM.

On to `CC[C@H](C)[C@H](S)C(=O)N[C@H]1CCc2ccccc2N(CC(=O)O)C1=O` [Example A-11, (S)-3-[(2S,3S)-2-Mercapto-3-methylvarelylamino]-1-carboxymethyl-2,3,4,5-tetrahydro-1H-[1]benzazepin-2-one], for which, at ACE, the 50% inhibitory concentration (IC50) amounted to 11 nM.

For the compound `CC(C)[C@H](S)C(=O)N[C@H]1Cc2ccc(-c3ccccc3)cc2[C@H]2CCC[C@@H](C(=O)O)N2C1=O` [Example E-10, [4S-[4α,7α(R*),12bβ]]-7-[(S)-2-Mercapto-3-methylbutyrylamino]-6-oxo-11-phenyl-1,2,3,4,6,7,8,12b-octahydropyrido[2,1-a][2]benzazepine-4-carboxylic acid], the IC50 was ≥ 10000 nM in test [1] and 4490 nM in test [2].

As for `O=C(N[C@H]1CCC[C@H]2SC[C@@H](C(=O)O)N2C1=O)[C@@H](S)Cc1ccccc1` [Example F-17, [3R-[3α,6α(S*),9aβ]]-6-[[(S)-1-Oxo-2-thio-3-phenylpropyl]amino]-octahydro-5-oxothiazol[3,2-a]-azepine-3-carboxylic acid], the IC50 in test [3] amounted to 1390 nM.

Broadly, the IC50 is the concentration needed to halve the response being measured. Lower therefore signals greater potency in that assay.

Values taken from US5679671A, “Amino acid derivative” (Eisai Co., Ltd., priority 1993, dated 1997).
